Measured values as given in patent US20240299595A1, “CANCER THERANOSTIC COMPOSITIONS COMPRISING BIGUANIDE COMPLEXES OF GROUP 7 TRANSITION METALS AND USES THEREOF” (BOARD OF REGENTS, THE UNIVERSITY OF TEXAS SYSTEM, priority 2021, published 2024).

Legend:
PDAC cells [1] = experiment: DCFDA cellular ROS detection assay; assay type: cell-based; settings: for level of reactive oxygen species (ROS): DCFDA assay, FIG. 9B
Experimental: Decreased fluorescence intensity measured at Ex/Em 485/535 nm indicated decreased level of ROS. Data are expressed as mean±SD (n=4). ***p<0.001 compared to vehicle (DMSO) control.
The production of intracellular reactive oxygen species (ROS) after treatments with Re-Phen and phenformin in PDAC cells was also measured (FIG. 16). DCFDA Cellular ROS Detection AssayKit (Abcam, Cambridge, MA) was used to measure Intracellular reactive oxygen species (ROS). Briefly, after seeded into 96-well plates at a cell density of 2.5×10^4 cells per well overnight, cell monolayers were washed and incubated for 45 min at 37° C. in the dark in the presence of 25 μM DCFDA diluted in serum-free adhesion medium without phenol red according to the manufacturer's instructions. Cells were then treated with compounds as indicated for 1 hour. End-point fluorescence was measured in a fluorescence microplate reader (Syneregy H1, Bio-Tek, Winooski, VT) at 485 nm excitation and 535 nm emission wavelengths.

[2] = system: orthotopic Kras* murine PDAC tumor; experiment: Antitumor efficacy, syngeneic Kras* orthotopic PDAC model; assay type: in vivo, C57BL/6 mice; settings: 10 daily intraperitoneal injections, 50 mg/kg/injection
Experimental: FIG. 6A outlines an in vivo experiment assessing antitumor activity of Re-Phen against orthotopic Kras* murine PDAC tumor. Male C57BL/6 mice were inoculated in the pancreas with iKrasG12D murine tumor cells. Treatments were initiated on day 7 after tumor cells inoculation. Each mouse received 10 daily intraperitoneal injections of phenformin or Re-Phen at a dose of 50 mg/kg/injection (100 μL/mouse). Control mice received 50/50 (v/v) Cremorphor EL/absolute ethanol, further diluted at 1:4 (v/v) ratio with saline (100 μL/mouse) before injection.
For antitumor efficacy study, the syngeneic Kras* orthotopic PDAC model was used. Kras* PDAC cells established from transgenic mouse model of PDAC with inducible KrasG12D mutation were inoculated into the pancreas of 6-week-old female C57BL/6 mice (Taconic Biosciences, Rensselaer, NY). Treatments were initiated on day 7 after tumor cells inoculation when tumors were ˜5 mm in diameter. Each mouse received 10 daily intraperitoneal injections of phenformin or Re-Phen at a dose of 50 mg/kg/injection (100 μL/mouse) (FIG. 6A). Each drug was formulated in 50/50 (v/v) Cremorphor EL/absolute ethanol, which that was further diluted at 1:4 (v/v) ratio with saline before injection. Animals were weighted daily to record possible adverse effects. Animals were euthanized on day 16 after the last injection. Tumors were harvested and weighted, fixed in formalin, embedded in paraffin, and cut into 4-μm sections. Slides were immunohistochemically stained with the proliferation marker Ki67, counterstained with hematoxylin and visualized under a brightfield microscope at 100× or 200× magnification.

[3] = system: normal cells (RAW264.7, NIH3T3, hTERT-HPNE); experiment: MTT cytotoxicity against normal cells; assay type: cell-based; settings: 72 hours
Experimental: Next, RAW264.7 (FIG. 14A), NIH3T3 (FIG. 14B), or hTERT-HPNE (FIG. 14C) cells were seeded in 96-well plates (5000 cells/well) overnight, and treated with Re-Phen or phenformin in concentrations ranging from 4.57×10−4 mM to 1.0 mM at 37° C. for 72 hours. Cell viability was measured using the MTT assay. The proportion of cells was normalized to that of untreated cells and expressed as mean±standard error of the mean (SEM) (n=5). The half-maximal inhibitory concentration (IC50) values were calculated by a sigmoidal dose-response (variable slope) curve-fitting using GraphPad Prism software.

[4] = system: PDAC cells (Kras*, MiaPaca-2); experiment: Annexin V/PI flow cytometry cell death; assay type: cell-based; settings: 250 μM, 24 hours, Kras* and MiaPaca-2 cell lines
Description: Vehicle (DMSO) treated cells were used as a control.
AMPK is a key enzyme that becomes activated under nutrient stress. Annexin V/PI double staining kit was used to detected cell death in flow cytofluorimetric analyses. […] In Kras* cell line, cells died largely of necrosis; in MiaPaca-2 cell line, cells died mostly of apoptosis.

MiaPaca-2 cells = experiment: Untargeted IC-MS metabolomics; assay type: cell-based
Experimental: Samples were measured by untargeted IC-MS after 12 hours of treatment (n=3).
Metabolites were extracted from lysed cells and samples were measured by untargeted IC-MS (n=3). Data are expressed as mean±SD (n=3). *p<0.05 compared to phenformin.
Following, untargeted IC-MS was used to analyze changes in cellular metabolites.

IRGOV-1 = experiment: MTT cytotoxicity, ovarian cancer cell line IRGOV-1; assay type: cell-based; settings: 72 hours
Experimental: (§1) Finally, a comparison study of the cytotoxicity of Re-Phen and phenformin in a panel of ovarian cancer cell lines by MTT assay after a 72 hour incubation period was conducted. Ovarian cells were seeded at 5000 cells/well in 96-well plates overnight, and treated with Re-Phen or phenformin in different concentrations (from 4.57×10^−4 mM to 1.0 mM in 3-fold increase) at 37° C. for 72 hours. Cell viability was measured using the MTT assay. The absorption at 590 nm was measured at microplate reader (SpectraMax, Molecular Device, San Diego, CA) to quantify cell numbers. The proportion of cells was normalized to that of untreated cells and expressed as mean±standard error of the mean (SEM) (n=5-6). The resulting reduced viability with half-maximal inhibitory concentration (IC50) values of mM were calculated by a sigmoidal dose-response (variable slope) curve-fitting using GraphPad Prism software. The data are shown in FIG. 19A (Re-Phen) and FIG. 19B (phenformin). […] In fact, Re-Phen is shown to display >2,000-fold and >5,000-fold higher cytotoxicity against OVACAR-8 and SKOV3 (Table 2) human ovarian cancer cell lines, respectively.

OVCAR8 = experiment: MTT cytotoxicity, ovarian cancer cell line OVCAR8; assay type: cell-based, human
Experimental: as §1

PDAC cells [5] = experiment: JC-10 mitochondrial membrane potential assay; assay type: cell-based; settings: JC-10 microplate assay kit
Experimental: The fluorescent intensities for J-aggregates (Ex/Em=540/590 nm) and monomeric forms (Ex/Em=490/525 nm) of JC-10 were measured with a microplate reader. Fluorescence intensity ratio measured at 525 nm/590 nm represents the change of mitochondrial membrane potential. Data are presented as mean±SD (n=4). *p<0.05; **p<0.01; ***p<0.001.
Both Re-Phen and phenformin altered the mitochondrial functions and metabolic state of PDAC cells. The fluorescent intensities for both monomeric forms (Ex/Em=490/525 nm) and J-aggregates (Ex/Em=540/590 nm) of JC-10 change upon mitochondrial membrane polarization. Thus, an increase in the ratio of fluorescence intensities measured at 525 nm (monomeric form) over 590 nm (aggregates) represents a decrease in mitochondrial membrane potential.

SMILES	level of reactive oxygen species (ROS) (PDAC cells [1])	ROS levels in MiaPaca-2 cells (PDAC cells [1]; MiaPaca-2 cells, DCFDA, treated 1 hour, FIG. 16)	Ki67+ proliferating cells in tumors (IHC) compared to vehicle [2]	change in body weight [2]	tumor size compared to vehicle control [2]	cytotoxicity against normal cells [3]	induction of cell death [4]	purine nucleotide pool compared to phenformin (MiaPaca-2 cells)	pyrimidine nucleotide pool (MiaPaca-2 cells)	level of 3-phosphoglycerate (3-PG) (MiaPaca-2 cells; 100 μM, 12 h)	level of phosphoenolpyruvate (PEP) (MiaPaca-2 cells; 100 μM, 12 h)	level of glutathione (GSH) (MiaPaca-2 cells; 200 μM, 12 hours)	TCA cycle: level of succinate and aspartate versus vehicle (MiaPaca-2 cells; 12 h)	IC50 (IRGOV-1)	IC50 (OVCAR8; MTT, 72 hours)	fold higher cytotoxicity against OVACAR-8 (OVCAR8; Re-Phen versus phenformin, Table 2)	mitochondrial membrane potential (PDAC cells [5])
N=C(N)NC(=N)NCCc1ccccc1.[C-]#[O+].[C-]#[O+].[C-]#[O+].[Re+] [Re-Phen]	reduced the level of reactive oxygen species (ROS)	reduced ROS levels	markedly reduced Ki67+ proliferating cells	No significant change in body weight	significantly reduced tumor size	generally less cytotoxic than phenformin	more potent than phenformin	increased purine nucleotide pool	decreased pyrimidine nucleotide pool	increased the level of 3-phosphoglycerate (3-PG) more than phenformin did	suppressed the level of phosphoenolpyruvate (PEP)	increased the level of glutathione (GSH)	reduced level of succinate and aspartate	420 µM	110 µM	> 2,000 fold	reduced mitochondrial membrane potential
[H]/N=C(/N)N/C(=N/[H])NCCc1ccccc1 [Phenformin, N-phenylethyl biguanide, reference compound]	increased the level of ROS	–	markedly reduced Ki67+ proliferating cells	No significant change in body weight	–	–	–	–	decreased pyrimidine nucleotide pool	–	–	–	reduced level of succinate and aspartate	380 µM	–	–	reduced mitochondrial membrane potential
